# Where a name gives a salt, the structure may show the parent alone.
# Columns and labels:
# [1] = target: T1, human alpha 1a adrenergic receptor (Homo sapiens, UniProt P35348); assay: Screening assay: alpha 1a adrenergic receptor binding ([125I]-HEAT competition); settings: membranes from stably transfected human alpha 1a cell line (ATCC CRL 11140), 100 pM [125I]-HEAT
# T1 sequence (P35348 1-466): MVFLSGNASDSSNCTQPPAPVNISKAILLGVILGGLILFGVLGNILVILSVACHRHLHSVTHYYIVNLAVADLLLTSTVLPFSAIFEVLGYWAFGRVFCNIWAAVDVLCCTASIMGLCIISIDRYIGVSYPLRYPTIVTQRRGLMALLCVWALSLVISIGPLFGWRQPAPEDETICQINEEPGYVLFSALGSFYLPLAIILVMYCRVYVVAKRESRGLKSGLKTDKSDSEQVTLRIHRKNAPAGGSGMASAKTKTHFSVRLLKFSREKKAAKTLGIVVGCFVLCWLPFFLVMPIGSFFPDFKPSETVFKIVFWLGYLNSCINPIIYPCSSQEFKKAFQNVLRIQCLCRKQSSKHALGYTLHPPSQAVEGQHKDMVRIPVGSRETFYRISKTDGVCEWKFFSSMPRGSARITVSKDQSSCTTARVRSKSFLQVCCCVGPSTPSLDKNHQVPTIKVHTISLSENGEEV
# Procedure: Screening Assay: Alpha 1a Adrenergic Receptor Binding
# These competition binding reactions (total volume=200 μl) contained 50 mM Tris-HCl pH. […] Reactions were incubated at room temperature for one hour with shaking. Reactions were filtered onto Whatman GF/C glass fiber filters with a Inotec 96 well cell harvester. Filters were washed three times with ice cold buffer and bound radioactivity was determined (Ki).
SMILES,Ki [1] [µM],melting point [°C]
"Cc1ccc(C2(c3ccc(C)cc3)NC(=O)N(CCCN3CCC4(CC3)Cc3ccccc3C4=O)C2=O)cc1 [Compound 20, 3-{3-(2,3-dihydro-spiro[indeno-2,4′-piperidin]-1(2H)-on-1-yl)propyl}-5,5-bis(4-methylphenyl)-imidazolin-2,4-dione]",< 0.02,201 to 205
"Cc1ccc(C2(c3ccc(C)cc3)NC(=O)N(CCCN3CCC4(CCc5ccccc54)CC3)C2=O)cc1 [Compound 18, 3-{3-(2,3-dihydro-spiro[indeno-1,4′-piperidin]-1′yl)propyl}-5,5-bis(4-methylphenyl)-imidazolin-2,4-dione]",< 0.02,170 to 172
"Cc1ccc(C2(c3ccc(C)cc3)NC(=O)N(CCCN3CCC(C#N)(c4ccccc4C)CC3)C2=O)cc1 [Compound 2, 3-{3-[4-(2-Methylphenyl)-4-cyanopiperidin-1-yl]propyl}-5,5-bis(4-methylphenyl)-imidazolin-2,4-dione]",< 0.02,164 to 165
"N#CC1(c2ccccc2)CCN(CCCN2C(=O)NC(c3ccccc3)(c3ccccc3)C2=O)CC1 [Compound 15, 3-[3-(4-phenyl-4-cyanopiperidin-1-yl)propyl]-5,5-bis(phenyl)-imidazolin-2,4-dione]",< 0.02,161 to 163
"Cc1ccc(C2(c3ccc(C)cc3)NC(=O)N(CCCCN3CCC4(CC3)C(=O)Cc3ccccc34)C2=O)cc1 [Compound 19, 3-{4-(2,3-dihydro-spiro[indeno-1,4′-piperidin]-2(3H)-on-1′-yl)butyl}-5,5-bis(4-methylphenyl)-imidazolin-2,4-dione]",< 0.02,76 to 88
"Cc1ccc(C2(c3ccc(C)cc3)NC(=O)N(CCCN3CCN(c4ccccc4C(N)=O)CC3)C2=O)cc1 (as salt: hydrochloride) [Compound 25, 3-{3-[4-(2-aminocarbonylphenyl)-piperazin-1-yl]propyl}-5,5-bis(4-methylphenyl)-imidazolin-2,4-dione dihydrochloride]",,160 to 163
"Cc1ccc(C2(c3ccc(C)cc3)NC(=O)N(CCCN3CCC4(CC3)C(=O)N(C)c3ccccc34)C2=O)cc1 [Compound 22, 3-{3-(1-methyl-spiro[3H-indole-3,4′piperidin]-2(1H)-on-1′-yl)propyl}-5,5-bis(4-methylphenyl)-imidazolin-2,4-dione]",< 0.02,127 to 135

# Source: US6436962B1, “Arylhydantoin derivatives and uses thereof” (Merck & Co., Inc., priority 1999, dated 2002)
